Experimental findings from paper PMC9241695, “Selective Metal Chelation by a Thiosemicarbazone Derivative Interferes with Mitochondrial Respiration and Ribosome Biogenesis in Candida albicans” (Microbiology Spectrum, 2022) are described below.

Converted amounts (≈) assume the structure as drawn.

One data set deals with C. albicans Gu5. As to the kind of experiment: microbe, parasite or virus in culture. The settings on record: Candida albicans, GU5. The class given is cell-based. The gist of the method:
(§1)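 CLSI microbroth dilution in RPMI1640 using final drug concentrations of 0.0156–64 μg/mL. C. albicans inoculum was 1 × 10^3 CFU/mL, and Candida plates were incubated at 35°C for 24 h. MIC was read as visible growth inhibition versus the drug-free control, in duplicate.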

For another data set, the system named is C. albicans G5. As to the kind of experiment: microbe, parasite or virus in culture. The conditions noted are these: Candida albicans, G5. The class given is cell-based. The gist of the method: as §1
For the next data set, the system named is C. albicans 24g. As to the kind of experiment: Microbroth dilution MIC80. The conditions noted are these: Candida albicans, 24G. The class given is cell-based. The method, boiled down: as §1
The subject of the next data set is C. albicans 28I. As to the kind of experiment: Microbroth dilution MIC80. In kind it is cell-based. The settings on record: Candida albicans, 28I. The method, boiled down:
as §1
For orientation: In broth dilution the organism is exposed to a series of concentrations in liquid medium.

The subject of another data set is C. albicans YEM13. As to the kind of experiment: Microbroth dilution MIC80. In kind it is cell-based. The conditions noted are these: Candida albicans. The method, boiled down:
as §1

Another data set has as its system C. albicans CA3. The data set can be described thus: Microbroth dilution MIC80. The conditions noted are these: Candida albicans, CA3. The class given is cell-based. The gist of the method: as §1
Another data set has as its system C. neoformans 108. As to the kind of experiment: Microbroth dilution MIC80. The conditions noted are these: Cryptococcus neoformans, 108. In kind it is cell-based. The gist of the method:
(§2)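 CLSI microbroth dilution in RPMI1640, inoculum 1 × 10^3 CFU/mL, compounds 0.0156–64 μg/mL final, 24 h at 35 °C. MIC read as visible growth inhibition versus control, in duplicate.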

Another data set concerns C. albicans 11e. As to the kind of experiment: Microbroth dilution MIC80. The class given is cell-based. The settings on record: Candida albicans, 11E. The gist of the method: as §1
A further data set has as its system A. fumigatus 1161. As to the kind of experiment: Microbroth dilution MIC80. The conditions noted are these: Aspergillus fumigatus, 1161. The class given is cell-based. The gist of the method:
as §2

For another data set, the system named is C. albicans 11f. The data set can be described thus: Microbroth dilution MIC80. In kind it is cell-based. The settings on record: Candida albicans, 11F. The method, boiled down: as §1
The subject of a further data set is C. albicans YEM15. As to the kind of experiment: Microbroth dilution MIC80. The settings on record: Candida albicans, YEM15. The class given is cell-based. The gist of the method: as §1
For the next data set, the system named is HepG2. The data set can be described thus: Intracellular ferrous and zinc contents in mammalian cells (FeRhoNox-1, Zinbo-5). In kind it is cell-based, human. The settings on record: 5 μg/mL, 12 h. The protocol:
(§3) FeRhoNox-1 is a commercially available fluorescent probe that specifically binds Fe^2+ and is used to measure intracellular Fe^2 + content. C. albicans SC5314 cells cultured overnight were diluted to roughly 1 × 10^6 cells/mL in RPMI 1640 medium and challenged with various doses of 19ak for 6 h. Next, the cells were fixed with 4% paraformaldehyde for 1 h. After washing three times with PBS, the cells were stained with 5 μM FeRhoNox-1 for 30 min and analyzed by flow cytometry (Becton, Dickinson, CA, USA). Mammalian cells culture is according to the method described in Cytotoxicity testing which was described in Supplemental material in detail. After 12 h of treatment with different concentrations of 19ak, the supernatant was discarded and washed three times with PBS. Cells were collected after staining with FeRhoNox-1 for 30 min in the dark, and the fluorescence intensity of stained cells was analyzed by flow cytometry.
(§4) C. albicans SC5314 cells grown overnight were pelleted, washed three times with PBS buffer, and resuspended to obtain an OD600 of 2.0. Next, the cells were incubated with various concentrations of 19ak in 96-well plates at 30°C for 6 h, followed by incubation with 10 μM Zinbo-5 for 30 min. Finally, fluorescence was measured in a microplate reader (excitation at 355 nm, emission at 485 nm). […]

The test system of another data set is 16HBE. The data set is described as above. In kind it is cell-based, human. The settings on record: 5 μg/mL, 12 h. The protocol: as §3, §4
Data set [1] in a line: Cytotoxicity testing (MTT). The class given is cell-based, human. The conditions noted are these: human, HepG2 cells (hepatocellular carcinoma cell line).
Data set [2] has as its system human hepatocellular carcinoma cell line HepG2. As to the kind of experiment: Cytotoxicity testing (MTT). The settings on record: ratio of IC50 against HepG2 to MIC80 against C. albicans SC5314. In kind it is cell-based.
The subject of a further data set is C. albicans SC5314. The data set can be described thus: RNA-seq transcriptional analysis. In kind it is cell-based, Candida albicans. The protocol: C. albicans SC5314 cells were inoculated into RPMI 1640 medium at a concentration of 1 × 10^7 cells/mL and incubated at 30°C for 6 h. The cells were then harvested, and RNA extraction was performed with the Yeast RNA Kit (OMEGA, Guangzhou, China). RNA purity was evaluated using a Nanodrop-2000, and RNA integrity was assessed using the RNA Nano 6000 detection kit. RNA-Seq libraries are prepared using NEB Next Ultra RNA Library Prep Kit (NEB, MA, USA) for Illumina. The cDNA library quality was quantified first by using Qubit 2.0 Fluorometer, detected on Agilent 2100 bioanalyzer. Clustering was performed in the cBot cluster generation system. After cluster generation, the library preparations were sequenced on the Illumina Novaseq platform. Library construction and sequencing were performed by Novogene (Beijing, China). Each sample was analyzed in triplicate.
The raw data in fastq format were first processed by an internal perl script. In this step, clean data were obtained by applying various processing methods. […] The clean reads were individually mapped to the C. albicans SC5314 reference genome using HISAT2 (v2.0.5). The fragments per kilobase of transcript per million mapped reads (FPKM) value was calculated for each gene, and the read counts were mapped to the genes. […] Genes with an adjusted P value < 0.05 and |log2FoldChange| > 1 as detected by DESeq2 were considered DEGs. […]

Consider `C/C(=N\NC(=S)N(C)C)c1ccccn1` [Compound 19ak], for which the MIC80 against C. albicans Gu5 amounted to 0.25 µg/mL (≈ 1.12 µM); against C. albicans G5, 1 µg/mL (≈ 4.5 µM); against C. albicans 24g, 0.25 µg/mL (≈ 1.12 µM); against C. albicans 28I, 0.125 µg/mL (≈ 0.562 µM); against C. albicans YEM13 it was 0.5 µg/mL (≈ 2.25 µM); against C. albicans CA3, 0.125 µg/mL (≈ 0.562 µM). Besides, the MIC80 in the data set with C. neoformans 108 is 0.25 µg/mL (≈ 1.12 µM); against C. albicans 11e, 1 µg/mL (≈ 4.5 µM); in the data set on A. fumigatus 1161 it was 0.5 µg/mL (≈ 2.25 µM); in the data set on C. albicans 11f, 1 µg/mL (≈ 4.5 µM); in the data set on C. albicans YEM15, 0.25 µg/mL (≈ 1.12 µM). Besides, the “Ferrous and zinc contents in HepG2 cells” value in the data set with HepG2 is reported as “almost had no effects”. Moreover, in the data set on 16HBE, the “Ferrous and zinc contents in 16HBE cells” value is given as “almost had no effects”. For the same compound, the IC50 (as a rule, the concentration that gives 50% inhibition) in data set [1] was found to be 10.3 µg/mL (≈ 46.3 µM). Besides, the “Selectivity index HepG2” value in data set [2] is 82.4. Besides, the “Expression of genes involved in iron and zinc acquisition” value is on record as “downregulated” in the data set on C. albicans SC5314 (high dose (2 μg/mL)) and “strongly induced” with C. albicans SC5314 (low dose (0.5 μg/mL)).
